The values that follow come from PubChem BioAssay (NCI).

Structures are written as SMILES.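 Following 48 hours of exposure in 96-well plates, responses at five concentrations were used to interpolate endpoints linearly. GI50 is the concentration that inhibits growth by half. At the TGI there is no net growth.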 Where only a bound is given, the exact number is not on record here.

Some test systems named below: EKVX NSCLC; KM12 colon; SF-295 CNS; K-562 leukemia; NCI-H226 lung; HS 578T breast; SK-MEL-28 melanoma; MALME-3M melanoma; BT-549 breast; NCI-H460 lung.
Experiment in all cases: DTP human tumour cell line panel, 48 h

For the molecule `COC(=O)C1=CN(CC2=CC(=O)C(C)=CC2=O)C=C(C(=O)OC)C1c1cccc(OC)c1OC`, the GI50 is 35.6 µM with EKVX NSCLC; 18 µM in the test on KM12 colon; 6.88 µM in the test on SF-295 CNS; 3.62 µM in the test on K-562 leukemia; 15.6 µM in the test with NCI-H226 lung; 27.1 µM with HS 578T breast. The GI50 in the test on SK-MEL-28 melanoma is 31 µM; with MALME-3M melanoma, 13.5 µM; with BT-549 breast, 34.3 µM; with NCI-H460 lung, 19.7 µM. For the same molecule, the TGI is more than 100 µM in the test with EKVX NSCLC; 57.2 µM with KM12 colon; more than 41.8 µM with SF-295 CNS; 26 µM in the test with K-562 leukemia; 40.5 µM with NCI-H226 lung; more than 87.3 µM in the test with HS 578T breast. Besides, the TGI in the test on SK-MEL-28 melanoma is more than 57.9 µM; in the test on MALME-3M melanoma, 34.3 µM; in the test with BT-549 breast, more than 100 µM; in the test on NCI-H460 lung, more than 70.7 µM.
Take `O=C(Oc1ccccc1)c1cc(O)c(O)c(O)c1`: the GI50 is 8.95 µM in the test with EKVX NSCLC; 11.5 µM in the test on KM12 colon; 17.9 µM in the test with SF-295 CNS; 5.78 µM in the test with K-562 leukemia; 12.9 µM in the test with NCI-H226 lung; 4.67 µM in the test on HS 578T breast. The GI50 with SK-MEL-28 melanoma was 19.2 µM; with MALME-3M melanoma it was 21.8 µM; with BT-549 breast, 15.6 µM; in the test with NCI-H460 lung it was 4.54 µM. For the same molecule, the TGI in the test on EKVX NSCLC was more than 100 µM; in the test with KM12 colon, more than 100 µM; in the test on SF-295 CNS, 83.7 µM; in the test on K-562 leukemia, 70.9 µM; in the test on NCI-H226 lung, more than 100 µM; in the test on HS 578T breast, more than 100 µM. Moreover, the concentration for total growth inhibition (TGI) in the test on SK-MEL-28 melanoma is more than 100 µM; in the test on MALME-3M melanoma, more than 100 µM; in the test on BT-549 breast, 83.2 µM; with NCI-H460 lung, more than 100 µM.
For the molecule `COc1cc2c(cc1OCCCCCOc1cc(-c3ccc(F)cc3)nc(C)n1)N=C[C@@H]1CCCN1C2=O`, the GI50 with EKVX NSCLC is more than 50.1 µM; in the test with KM12 colon, more than 48.3 µM; in the test on SF-295 CNS, more than 50.9 µM; in the test on K-562 leukemia, more than 21.6 µM; with NCI-H226 lung, more than 100 µM; in the test on HS 578T breast, more than 47.5 µM. The GI50 was more than 46.2 µM in the test with SK-MEL-28 melanoma, more than 48.3 µM in the test with MALME-3M melanoma, more than 32.8 µM in the test with BT-549 breast and more than 36 µM with NCI-H460 lung. The TGI is more than 81 µM in the test with EKVX NSCLC; more than 73.6 µM with KM12 colon; more than 76.1 µM with SF-295 CNS; more than 66.4 µM in the test on K-562 leukemia; more than 100 µM in the test on NCI-H226 lung; more than 81.2 µM in the test on HS 578T breast. Moreover, the concentration for total growth inhibition (TGI) in the test with SK-MEL-28 melanoma is more than 79.8 µM; in the test on MALME-3M melanoma, more than 68.7 µM; in the test with BT-549 breast it was more than 61.1 µM; in the test on NCI-H460 lung, more than 58.5 µM.
`CCN(CC)c1ccc(/C=N/NC(=O)c2ccc(Nc3ccnc(C(F)(F)F)c3)cc2)c(O)c1`: the 50% growth inhibitory concentration (GI50) in the test with EKVX NSCLC is 0.167 µM; with KM12 colon, 0.316 µM; in the test with SF-295 CNS, 0.122 µM; in the test on K-562 leukemia, 0.147 µM; with NCI-H226 lung, 0.288 µM; with HS 578T breast it was 0.321 µM. In addition, the GI50 in the test with SK-MEL-28 melanoma was 0.32 µM; in the test on MALME-3M melanoma, 0.482 µM; with BT-549 breast, 0.38 µM; in the test on NCI-H460 lung, 0.212 µM. Further, the TGI with EKVX NSCLC turned out to be 1.76 µM; with KM12 colon, 4.1 µM; in the test on SF-295 CNS it was 0.927 µM; in the test with K-562 leukemia it was 3.47 µM; with NCI-H226 lung, 2.34 µM; with HS 578T breast it was 3.6 µM. Moreover, the TGI was more than 27.3 µM in the test with SK-MEL-28 melanoma, 5.7 µM in the test with MALME-3M melanoma, more than 34.9 µM with BT-549 breast and 1.48 µM with NCI-H460 lung.
Take `COC(=O)c1c2c(c(C)[n+]([O-])c1C)C(=O)C=C(NCc1ccc(Cl)cc1)C2=O`: the GI50 in the test with EKVX NSCLC was 0.783 µM; in the test on KM12 colon, 0.127 µM; in the test with SF-295 CNS it was 0.362 µM; with K-562 leukemia, 0.0478 µM; in the test on NCI-H226 lung, 1.43 µM; with HS 578T breast, 1.77 µM. Also, the GI50 is 0.733 µM in the test on SK-MEL-28 melanoma, 0.157 µM with MALME-3M melanoma, 1.22 µM in the test on BT-549 breast and 0.397 µM with NCI-H460 lung. The TGI was found to be 2.39 µM in the test on EKVX NSCLC; 2 µM in the test on KM12 colon; 1.58 µM in the test on SF-295 CNS; 5.25 µM with K-562 leukemia; 3.52 µM in the test with NCI-H226 lung; 6.5 µM with HS 578T breast. For the same molecule, the TGI is 2.59 µM in the test with SK-MEL-28 melanoma, 0.381 µM in the test with MALME-3M melanoma, 2.58 µM with BT-549 breast and 1.71 µM in the test on NCI-H460 lung.
As to `CC1CCC2(OC1)OC1CC3C4CC=C5CC(OC6OC(CO)C(OC7OC(C)C(OC8OC(C)C(O)C(O)C8O)C(O)C7O)C(O)C6OC6OC(C)C(O)C(O)C6O)CCC5(C)C4CCC3(C)C1C2C` (centres undefined), the TGI in the test with EKVX NSCLC was 2.1 µM; with KM12 colon, 1.43 µM; in the test on SF-295 CNS it was 1.59 µM; in the test on NCI-H226 lung, 2.86 µM; in the test with HS 578T breast it was 1.77 µM; in the test on SK-MEL-28 melanoma, 1.85 µM. Besides, the TGI is 1.5 µM in the test with MALME-3M melanoma, 3.07 µM in the test on BT-549 breast and 3.25 µM with NCI-H460 lung.
With `O=C(Nc1ccccc1Cl)c1cnc2ccc(C3CCNCC3)cn12`, the GI50 was 11.7 µM in the test with EKVX NSCLC; more than 85.4 µM with KM12 colon; 24.8 µM in the test with SF-295 CNS; 8.23 µM in the test on K-562 leukemia; more than 24.4 µM in the test with NCI-H226 lung; 0.292 µM with HS 578T breast. Also, the GI50 is 18.4 µM with SK-MEL-28 melanoma, 22.1 µM in the test with MALME-3M melanoma, more than 73.7 µM in the test on BT-549 breast and more than 87.3 µM in the test with NCI-H460 lung. The TGI in the test on EKVX NSCLC is more than 100 µM; in the test on KM12 colon, more than 100 µM; in the test on SF-295 CNS it was more than 83.9 µM; in the test on K-562 leukemia it was more than 100 µM; with NCI-H226 lung it was more than 100 µM; in the test with HS 578T breast, 2.92 µM. Besides, the TGI in the test with SK-MEL-28 melanoma was 43.3 µM; with MALME-3M melanoma, more than 94.5 µM; in the test on BT-549 breast, more than 100 µM; in the test on NCI-H460 lung it was more than 100 µM.

One may read the GI50 as the concentration giving 50% growth inhibition. In general, TGI refers to the concentration at which net growth stops. A lower TGI goes with more potent growth arrest.
